Test results published in patent US7345069B2, “Oxidative activation and episulfonium ion-mediated DNA alkylation-based anticancer” (Wisconsin Alumni Research Foundation, priority 2004, dated 2008).
Like-named read-outs stand apart in the source and are kept apart here.

Experiments:
LNCaP cells [1] = details: cited from earlier work; for cellular ROS level: 96 h
LNCaP cells [2] = test: Growth inhibition by DNA assay, LNCaP cells in androgen-depleted medium, untreated or pretreated with R1881 (with or without vitamin E succinate); assay type: cell-based
Procedure: To test whether TG-25 was activated under oxidative stress, LNCaP cells were grown in androgen-depleted medium in the presence of 0.01 nM and 1 nM androgen analog R1881 for 96 h. […] This concentration was also close to the range of concentration of the active androgen dihydrotestosterone found in normal human male and patients treated with androgen ablation therapy. The growth inhibitory effect of LNM and TG-25 against LNCaP cells either untreated or pretreated with R1881 as shown in FIG. 9 and FIG. 10, respectively. Under these treatment conditions, 0.01 nM R1881 stimulated growth by about 30% and 1 nM R1881 inhibited cell growth to about 40% of the control untreated cells. The data shown in FIG. 9 and FIG. 10 are normalized for the growth stimulatory or inhibitory effects of R1881 alone.
The effect of LNM and TG-25 against LNCaP cells pretreated with both R1881 and α-tocopherol succinate are shown in FIG. 11 and FIG. 12, respectively. All data for pretreated cells were normalized for the growth inhibition induced by α-tocopherol succinate plus R1881.

DU-145 cells = test: Growth inhibition by DNA fluorescence assay, cells grown in 5% FBS, 72 h after drug treatment; assay type: cell-based; details: DNA fluorescence 72 h after drug treatment
Procedure: The growth inhibitory effects of LNM against LNCaP and DU-145 cell lines grown in 5% FBS were determined by measuring DNA fluorescence 72 h after drug treatment. […] Growth inhibitory effects of LNM against LNCaP and DU-145 cells were expressed as percent of control untreated cells are shown in FIG. 7.

[3] = tested on: immortalized normal prostatic epithelial cells (E6); test: Growth inhibition by DNA assay, immortalized normal prostatic epithelial cells (E6); assay type: cell-based
[4] = In vitro oxidation of purified TG-25 on exposure to O2; assay type: physicochemical; details: aqueous or methanol solution
Source text: Three additional minor metabolites were also characterized from the ΔlnmE strain, and their structures were elucidated by the combination of MS, ^1H- and ^13C—NMR, and various 2D NMR spectroscopic methods as discussed above (compound 1, 2, 4, and 5 as shown in FIG. 6) Although these compounds were isolated in minor quantities and were apparently derived from TG-25 during the isolation, their structures were critical in helping to define the oxidative activation of TG-25 undergo rearrangement via an episulfornium ion intermediate (FIG. 6). It was clear by comparing the structure of TG-25 with those of 1 and 2 that an oxidation step was required for their conversion. Isolation of compound 4 shed light into how this oxidative rearrangement from TG-25 to 1 or 2 actually happens. Thus, as depicted in FIG. 6 TG-25 apparently was first oxidized by O2 to form the dimmer 4, activating the sulfhydryl group into a disulfide. Nucleophilic attack of the disulfide by the double bond could then be envisaged to form an episulfonium ion intermediate, in a mechanistic analogy to LNM, that subsequently could be trapped by H2O (leading the formation of 1) or methanol (leading to the formation of 2). This hypothesis was confirmed by re-producing the chemistry in vitro with purified TG-25.

## C[C@]1(O)CC[C@H]2[C@@H]3CCC4=CC(=O)CCC4=C3C=C[C@@]21C [Compound R1881]
LNCaP cells [1]; 0.01 nM R1881, LNCaP cells
  cellular ROS level: reduces the cellular ROS
LNCaP cells [1]; 1 nM R1881, LNCaP cells
  cellular ROS level: increases cellular ROS level
LNCaP cells [2]; 0.01 nM R1881, 96 h, androgen-depleted medium
  growth stimulation by R1881 alone: about 30%
LNCaP cells [2]; 1 nM R1881, 96 h, androgen-depleted medium
  cell growth with R1881 alone: about 40 % of the control untreated cells

## C/C1=C\[C@@H](O)C(=O)/C=C/C=C\c2csc(n2)[C@@H](C)NC(=O)C[C@@]2(CC1)[S+]([O-])SC(=O)[C@]2(C)O (stereo partly drawn) [LNM, leinamycin]
DU-145 cells
  sensitivity of DU-145 cells compared with LNCaP cells: slightly more sensitive to LNM
[3]; Epithelial cell, read-out: IC50, growth inhibition
  IC50: < 0.0002 µM
[3]; immortalized normal prostatic epithelial cells vs LNCaP and DU-145
  growth inhibitory effect compared with the prostate cancer cell lines: stronger growth inhibitory effect
LNCaP cells [2]; LNCaP cells
  growth inhibitory effect in androgen depleted medium compared with 5% FBS: more pronounced
LNCaP cells [2]; LNCaP cells pretreated with 0.01 nM or 1 nM R1881
  influence of R1881 pretreatment on growth inhibition: not appreciably affected
LNCaP cells [2]; LNM alone or in combination with R1881, LNCaP cells
  influence of α-tocopherol succinate on growth inhibition: no effect

## C/C1=C\CC(=O)/C=C/C=C\c2csc(n2)[C@@H](C)NC(=O)C[C@@](S)(C(C)C(=O)O)CC1 (stereo partly drawn) [TG-25]
[3]; immortalized normal prostatic epithelial cells, up to μM concentration
  growth inhibitory effect: little growth inhibitory effect even at μM concentration
LNCaP cells [2]; Homo sapiens, LNCaP cells pretreated with 1 nM androgen analog R1881, read-out: IC50, growth inhibition of LNCaP prostate cancer cells
  IC50: 5 to 10 µM
LNCaP cells [2]; LNCaP cells pretreated with 1 nM R1881 plus α-tocopherol succinate, normalized for pretreatment alone
  growth inhibitory effect after co-pretreatment with R1881 and vitamin E (α-tocopherol succinate): completely reverses the growth inhibitory effect
LNCaP cells [2]; LNCaP cells, 0.01 nM R1881 for 96 h
  growth inhibitory effect against cells pretreated with 0.01 nM R1881: no effect
LNCaP cells [2]; LNCaP cells, R1881 pretreated (high oxidative stress)
  growth inhibitory effect against R1881 pretreated cells: markedly inhibited the growth
LNCaP cells [2]; LNCaP cells, androgen-depleted medium, no R1881
  growth inhibitory effect against control untreated cells: no effect
[4]
  conversion upon exposure to O2: rapidly converted to 1 or 2

## Cc1c(C)c2c(c(C)c1OC(=O)CCC(=O)O)CCC(C)(CCCC(C)CCCC(C)CCCC(C)C)O2 (stereo not drawn) [α-tocopherol (vitamin E) succinate]
LNCaP cells [1]; co-treatment of LNCaP cells
  effect on the increase in ROS level by 1 nM R1881 pretreatment: can be inhibited
